# Laboratory results: patent publication US20170216179A1, “COSMETIC AND/OR DERMATOLOGICAL COMPOSITION FOR COLOURING THE SKIN” (AFFICHEM, priority 2014, published 2017)
# Assays:
# TRP-1 = test: Gene expression by RT-qPCR, TRP-1; assay type: cell-based, murine; settings: 1 μM, 24 h
# Protocol: (§1) Cells were seeded and treated for 24 h with the molecules the action of which we want to study, that is to say here, with DDA (1 μM), on the one hand, and with L7DDA (0.1 or 1 or 2.5 or 5 μM) on the other. The results were compared with irradiated ultraviolet cells as in Example 6.
# (§2) To quantify the expression of these genes, RNA extraction from cells was performed. Melanocytes were treated for 24 h with the active molecule or the control agent. 1 mL of Trizol® was added; after 5 min at room temperature, the totality was placed in an Eppendorf tube. 200 μL of CHCl3 were added at 4° C. The Eppendorf tubes were stirred manually, by turning them during 15 sec, left for 5 min at room temperature and then centrifuged at 16000 g at 4° C. for 10 min. The colourless aqueous phase was isolated. 500 μL of isopropanol (−20° C.) were added. The Eppendorf tubes were stirred manually, by turning them during 15 sec, left for 15 min at room temperature and then centrifuged at 16200 g at 4° C. for 10 min. The supernatant was removed. The pellet was washed with 1 mL of 75% ethanol (−20° C.). After centrifugation at 16000 g at 4° C. for 5 min, the supernatant was removed. 10 min after drying, the pellet was resuspended with 30 μL of RNAase-free water. The quantity and purity of RNA were estimated by spectrophotometry (230, 260 and 280 nm). […]
# [1] = tested on: healthy murine melanocytes; test: Quantification of melanin synthesized by melanocytes; assay type: cell-based; settings: cells treated 24 h; relative to control (=100%); FIG. 3
# Protocol: Quantification of synthesized melanin by healthy murine melanocytes was performed according to the protocol described by Ando et al. (J. Lipid Res., 1999, 40, 1312).
# Cells were seeded and treated for 24 h with the test product or the used vehicle (ethanol) and with, as a positive control, exposure to a dose of 20 mJ/cm^2 of ultraviolet radiation.
# 5 Million cells were isolated after centrifugation at 1500 rpm for 5 min at 4° C. The pellet was washed twice with PBS and then transferred into an Eppendorf tube and centrifuged at 5000 g for 5 min. The supernatant was removed. 200 μL of water and 1 mL of EtOH/ether (1/1) were added (melanin was insoluble in this mixture). After 15 min at room temperature, the totality was again centrifuged at 5000 g for 5 min; the supernatant was removed. The pellet was then taken up with 300 μL of a solution of NaOH(1M) in H2O/DMSO 90/10 and placed at 80° C. for one hour. Absorbance was measured at 470 nm. The amount of synthesized melanin was expressed based on the control (=100%).
# tyrosinase [2] = test: Gene expression by RT-qPCR, tyrosinase; assay type: cell-based, murine; settings: 1 μM, 24 h
# Protocol: as §1, §2
# tyrosinase [3] = test: Stimulation of tyrosinase activity in melanocytes (L-DOPA oxidation); assay type: cell-based, murine; settings: cells treated 24 h; with respect to the control (=100%); FIG. 4
# Protocol: The study was conducted on healthy murine melanocytes. The results were compared with those obtained with a positive control subjected to a dose of 20 mJ/cm^2 of ultraviolet radiation. The cells were treated for 24 h with either the vehicle used (ethanol) or with the test product. The tyrosinase activity was quantified according to the protocol described by Ando et al. (J. Lipid Res. 1999, 40, 1312) as explained below.
# 5 Million cells were isolated after centrifugation at 1500 rpm for 5 min at 4° C. The pellet was washed twice with PBS and then transferred into an Eppendorf tube and centrifuged at 5000 g for 5 min. The supernatant was removed. 1 mL of 0.5% by mass sodium deoxycholate solution was added (cell lysis). After 15 min at 0° C., 3 mL of a solution of 0.1% by mass of L-DOPA in 0.1M phosphate buffer (pH 6.8) were added. The whole was placed at 37° C. for 10 min. Tyrosinase activity was spectrophotometrically analysed by following the oxidation of L-DOPA to DOPAchrome. Absorbance was measured at 475 nm. The tyrosinase activity was expressed based on the control (=100%), which determines the cell basal tyrosinase activity.
# TRP-2 = test: Gene expression by RT-qPCR, TRP-2; assay type: cell-based, murine; settings: 1 μM, 24 h
# Protocol: as §1, §2
smiles,measurement,setting,value
"CC(C)CCC[C@@H](C)[C@H]1CC[C@H]2[C@@H]3C[C@@H](NCCc4c[nH]cn4)[C@@]4(O)C[C@@H](O)CC[C@]4(C)[C@H]3CC[C@]12C [DDA, 5α-hydroxy-6β-[2-(1H-imidazol-4-yl)ethylamino]cholestan-3β-ol]",ΔΔCT (TRP-1),TRP-1,13.45
same,synthesis of melanin,[1],increase
same,ΔΔCT (tyrosinase),tyrosinase [2],6.09
same,tyrosinase activity in cells,tyrosinase [3],increased
same,ΔΔCT (TRP-2),TRP-2,6.97
